Like-named read-outs stand apart in the source and are kept apart here. Values belong to the molecule of their own block, whether it stands above or below them.
Test: Blood levels of penciclovir in Pekin ducks after oral dosing with penciclovir or famciclovir
Format: in vivo
Conditions: duck; for AUC at 6 h: 0-6 hr; for concentration at 0.25 h: 15 min; for concentration at 32 min / concentration at 0.5 h: 30 min; for concentration at 32 min: sample collected at 32 min; for concentration at 1 h / concentration at 65 min: 60 min; for concentration at 2 h: 120 min; for concentration at 4 h: 240 min; for concentration at 6 h: 360 min; for concentration at 65 min: sample collected at 65 min
[1] = 5 mg/kg, oral famciclovir 5 mg/kg, Duck No. 117
[2] = 5 mg/kg, oral famciclovir 5 mg/kg, Duck No. 154
[3] = 25 mg/kg, oral famciclovir 25 mg/kg, Duck No. 111
[4] = 25 mg/kg, oral famciclovir 25 mg/kg, Duck No. 153
[5] = 20 mg/kg, oral penciclovir 20 mg/kg, Duck No. 139
[6] = 20 mg/kg, oral penciclovir 20 mg/kg, Duck No. 169
[7] = 100 mg/kg, oral penciclovir 100 mg/kg, Duck No. 142
[8] = 100 mg/kg, oral penciclovir 100 mg/kg, Duck No. 163

Compound: CC(=O)OCC(CCn1cnc2cnc(N)nc21)COC(C)=O [famciclovir, 9-(4-acetoxy-3-acetoxymethylbut-1-yl)-2-aminopurine]
AUC at 6 h (5 mg/kg, oral famciclovir 5 mg/kg, Duck No. 117, read-out: AUC (area under the 0-6 hr. concentration/time curve) of penciclovir in blood): 15 µM·h
AUC at 6 h (5 mg/kg, oral famciclovir 5 mg/kg, Duck No. 154, read-out: AUC (area under the 0-6 hr. concentration/time curve) of penciclovir in blood): 12 µM·h
concentration at 0.25 h [1]: 8.7 µM
concentration at 0.25 h [2]: 5.1 µM
concentration at 32 min [1]: 8.4 µM
concentration at 32 min [2]: 3.9 µM
concentration at 1 h [1]: 7.5 µM
concentration at 1 h [2]: 3.5 µM
concentration at 2 h [1]: 2 µM
concentration at 2 h [2]: 2 µM
concentration at 4 h [1]: ~0.5 µM
concentration at 4 h [2]: 1.4 µM
concentration at 6 h [2]: 1 µM
AUC at 6 h (25 mg/kg, oral famciclovir 25 mg/kg, Duck No. 111, read-out: AUC (area under the 0-6 hr. concentration/time curve) of penciclovir in blood): 126 µM·h
AUC at 6 h (25 mg/kg, oral famciclovir 25 mg/kg, Duck No. 153, read-out: AUC (area under the 0-6 hr. concentration/time curve) of penciclovir in blood): 90 µM·h
concentration at 0.25 h [3]: 22 µM
concentration at 0.25 h [4]: 18 µM
concentration at 0.5 h [3]: 31 µM
concentration at 32 min [4]: 20 µM
concentration at 1 h [3]: 34 µM
concentration at 1 h [4]: 25 µM
concentration at 2 h [3]: 33 µM
concentration at 2 h [4]: 20 µM
concentration at 4 h [3]: 14 µM
concentration at 4 h [4]: 4.4 µM
concentration at 6 h [3]: 6.1 µM
concentration at 6 h [4]: ~0.5 µM

AUC at 6 h (20 mg/kg, oral penciclovir 20 mg/kg, Duck No. 139, read-out: AUC (area under the 0-6 hr. concentration/time curve) of penciclovir in blood): 55 µM·h
AUC at 6 h (20 mg/kg, oral penciclovir 20 mg/kg, Duck No. 169, read-out: AUC (area under the 0-6 hr. concentration/time curve) of penciclovir in blood): 57 µM·h
concentration at 0.25 h [5]: 24 µM
concentration at 0.25 h [6]: 41 µM
concentration at 0.5 h [5]: 28 µM
concentration at 0.5 h [6]: 30 µM
concentration at 65 min [5]: 18 µM
concentration at 65 min [6]: 19 µM
concentration at 2 h [5]: 12 µM
concentration at 2 h [6]: 10 µM
concentration at 4 h [5]: 2.8 µM
concentration at 4 h [6]: 2.6 µM
concentration at 6 h [5]: ~0.5 µM
AUC at 6 h (100 mg/kg, oral penciclovir 100 mg/kg, Duck No. 142, read-out: AUC (area under the 0-6 hr. concentration/time curve) of penciclovir in blood): 92 µM·h
AUC at 6 h (100 mg/kg, oral penciclovir 100 mg/kg, Duck No. 163, read-out: AUC (area under the 0-6 hr. concentration/time curve) of penciclovir in blood): 95 µM·h
concentration at 0.25 h [7]: 43 µM
concentration at 0.25 h [8]: 42 µM
concentration at 0.5 h [7]: 44 µM
concentration at 0.5 h [8]: 38 µM
concentration at 1 h [7]: 40 µM
concentration at 65 min [8]: 44 µM
concentration at 2 h [7]: 18 µM
concentration at 2 h [8]: 21 µM
concentration at 4 h [7]: 3.6 µM
concentration at 4 h [8]: 2.7 µM
concentration at 6 h [7]: 1.1 µM
concentration at 6 h [8]: ~0.5 µM
Compound: Nc1nc2c(ncn2CCC(CO)CO)c(=O)[nH]1 [penciclovir]
